Experimental findings from ChEMBL document CHEMBL1149535, “2-Arylimino-5,6-dihydro-4H-1,3-thiazines as a new class of cannabinoid receptor agonists. Part 2: orally bioavailable compounds” (Bioorg Med Chem Lett, 2007) are described below.

Data set [1] has as its target Cannabinoid receptor 2 (Homo sapiens, UniProt P34972). Briefly: Binding affinity to human CB2 receptor.
Data set [2] addresses Cannabinoid receptor 1 (Homo sapiens, UniProt P21554). Briefly: Binding affinity to human CB1 receptor.
A short description of data set [3]: Total clearance in rat at 0.5 mg/kg, iv and 1 mg/kg, po. The data set is classed as ADME, organism-based. Conditions: in vivo.
Data set [4] is described as follows: Oral bioavailability in rat at 1 mg/kg. The data set is classed as ADME, organism-based. Conditions: in vivo.
In data set [5] the test system is Mus musculus. Briefly: Analgesic activity against formalin-induced acute pain in po dosed mouse. The data set is classed as functional.
Data set [6] is described as follows: Oral bioavailability in rat at 30 mg/kg. Format: ADME, organism-based. Conditions: in vivo.
In data set [7] the test system is Mus musculus. Kind of data set: Analgesic activity against formalin-induced acute pain in iv dosed mouse. Format: functional.
Data set [8] can be described thus: Total clearance in rat at 2 mg/kg, iv and 30 mg/kg, po. The data set is classed as ADME, organism-based. The settings on record: in vivo.
The target in data set [9] is Cannabinoid receptor 1 (Mus musculus, UniProt P47746). Kind of data set: Binding affinity to mouse CB1 receptor.
Data set [10] can be described thus: Half life in rat at 2 mg/kg, iv and 30 mg/kg, po. Format: ADME, organism-based. The settings on record: in vivo.
Data set [11] in a line: AUC in rat at 30 mg/kg, po. Format: ADME, organism-based. The arrangement: dose 30 mg/kg, route oral. The settings on record: plasma.
The subject of data set [12] is Mus musculus. Kind of data set: Analgesic activity against formalin-induced inflammatory pain in po dosed mouse. The data set is classed as functional.
Data set [13] concerns Mus musculus. Kind of data set: Analgesic activity against formalin-induced inflammatory pain in iv dosed mouse. The data set is classed as functional.
Data set [14] concerns the target Cannabinoid receptor 2 (Mus musculus, UniProt P47936). Kind of data set: Binding affinity to mouse CB2 receptor.

Chain of Cannabinoid receptor 2 (Homo sapiens, UniProt P34972) (P34972 whole entry): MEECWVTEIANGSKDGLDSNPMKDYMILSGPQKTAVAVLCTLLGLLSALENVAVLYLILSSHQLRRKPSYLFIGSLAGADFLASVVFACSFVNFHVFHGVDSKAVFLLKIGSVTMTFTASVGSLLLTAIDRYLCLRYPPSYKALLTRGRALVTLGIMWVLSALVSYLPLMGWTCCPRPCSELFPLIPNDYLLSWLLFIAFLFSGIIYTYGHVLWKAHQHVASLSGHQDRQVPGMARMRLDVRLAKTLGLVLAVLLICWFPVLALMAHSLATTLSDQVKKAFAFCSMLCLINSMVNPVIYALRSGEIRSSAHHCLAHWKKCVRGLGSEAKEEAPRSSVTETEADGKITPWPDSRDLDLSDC
Chain of Cannabinoid receptor 1 (Mus musculus, UniProt P47746) (P47746 whole entry): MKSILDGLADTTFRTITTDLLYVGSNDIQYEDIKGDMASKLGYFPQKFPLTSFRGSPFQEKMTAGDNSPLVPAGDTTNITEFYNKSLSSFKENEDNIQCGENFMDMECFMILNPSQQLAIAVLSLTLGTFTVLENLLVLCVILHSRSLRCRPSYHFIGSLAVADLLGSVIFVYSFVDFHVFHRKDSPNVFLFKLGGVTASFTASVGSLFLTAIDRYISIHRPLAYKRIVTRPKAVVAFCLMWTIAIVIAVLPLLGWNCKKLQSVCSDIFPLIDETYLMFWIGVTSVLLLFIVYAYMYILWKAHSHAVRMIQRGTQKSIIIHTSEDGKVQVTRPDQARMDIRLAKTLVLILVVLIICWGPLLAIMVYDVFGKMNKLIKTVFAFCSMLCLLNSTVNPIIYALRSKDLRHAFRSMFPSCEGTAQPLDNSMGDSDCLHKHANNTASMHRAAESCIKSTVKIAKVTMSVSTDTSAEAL
Chain of Cannabinoid receptor 2 (Mus musculus, UniProt P47936) (P47936 whole entry): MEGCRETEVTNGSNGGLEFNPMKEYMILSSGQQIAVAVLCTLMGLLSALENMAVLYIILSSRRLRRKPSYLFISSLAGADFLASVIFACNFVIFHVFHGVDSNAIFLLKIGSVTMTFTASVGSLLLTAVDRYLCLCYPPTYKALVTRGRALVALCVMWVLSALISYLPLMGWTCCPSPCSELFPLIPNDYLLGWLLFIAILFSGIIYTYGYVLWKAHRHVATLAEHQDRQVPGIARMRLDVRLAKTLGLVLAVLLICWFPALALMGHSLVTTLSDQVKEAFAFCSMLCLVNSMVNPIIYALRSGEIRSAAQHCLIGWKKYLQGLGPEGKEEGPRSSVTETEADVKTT
Chain of Cannabinoid receptor 1 (Homo sapiens, UniProt P21554) (P21554 whole entry): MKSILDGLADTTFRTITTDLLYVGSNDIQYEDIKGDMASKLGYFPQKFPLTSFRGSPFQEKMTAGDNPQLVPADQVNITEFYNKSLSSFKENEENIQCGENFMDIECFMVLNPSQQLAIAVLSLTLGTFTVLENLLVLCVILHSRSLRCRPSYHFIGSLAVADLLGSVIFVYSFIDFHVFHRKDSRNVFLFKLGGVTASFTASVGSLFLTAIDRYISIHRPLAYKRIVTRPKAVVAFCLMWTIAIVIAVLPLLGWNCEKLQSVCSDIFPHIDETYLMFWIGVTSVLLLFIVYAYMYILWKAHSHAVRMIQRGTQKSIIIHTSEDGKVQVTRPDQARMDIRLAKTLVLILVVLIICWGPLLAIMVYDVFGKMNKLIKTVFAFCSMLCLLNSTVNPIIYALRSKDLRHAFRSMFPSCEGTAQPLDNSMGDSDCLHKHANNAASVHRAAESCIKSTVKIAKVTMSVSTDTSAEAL

Regarding `CSC(=S)N1CC2(CCCCC2)CS/C1=N\c1cccc(C(C)C)c1`, the Ki is 2.5 nM on Cannabinoid receptor 2 [1] and 100 nM on Cannabinoid receptor 1 [2].

As for `COc1ccccc1/N=C1\SCC2(CCCCC2)CN1C(=S)SC`, in data set [3], the clearance was 75.9 mL/min/kg. Also, the figures for the Ki on Cannabinoid receptor 2 [1] and at Cannabinoid receptor 1 [2] were 1.1 nM and 13 nM, respectively. In data set [4], the bioavailability came out at 0.4%.

In data set [3], `COc1cccc(/N=C2\SCC3(CCCCC3)CN2C(=S)SC)c1` displayed a clearance of 45.1 mL/min/kg. In addition, the Ki on Cannabinoid receptor 2 [1] was determined as 1 nM; at Cannabinoid receptor 1 [2] it was 108 nM. Besides, the bioavailability in [4] stood at 13%.

As to `COc1ccc(/N=C2\SCC3(CCCCC3)CN2C(=S)SC)cc1`, the figures for the Ki on Cannabinoid receptor 2 [1] and at Cannabinoid receptor 1 [2] were 3.8 nM and 671 nM, respectively.

On to `CCCc1ccc(/N=C2\SCC3(CCCCC3)CN2C(=S)SC)cc1`, for which the Ki amounted to 7 nM at Cannabinoid receptor 2 [1] and 514 nM at Cannabinoid receptor 1 [2].

On to `CSC(=S)N1CC2(CCCCC2)CS/C1=N\c1ccc(C(F)(F)F)cc1`, for which the inhibitory constant (Ki) at Cannabinoid receptor 2 [1] is 18 nM; at Cannabinoid receptor 1 [2], 1730 nM.

For the compound `CSC(=S)N1CC2(CCCCC2)CS/C1=N\c1cccc2c1CCCC2`, the clearance in [3] was determined as 19.1 mL/min/kg; in data set [8], 23.3 mL/min/kg. For the same compound, the ED50 amounted to 2.5 mg/kg in the data set on Mus musculus [5], 0.3 mg/kg with Mus musculus [7], 4 mg/kg in the data set on Mus musculus [12] and 0.2 mg/kg in the data set with Mus musculus [13]. Further, the bioavailability in data set [6] is 7%; in data set [4] it was 44%. The inhibitory constant (Ki) on Cannabinoid receptor 2 [1] turned out to be 0.2 nM; at Cannabinoid receptor 1 [9] it was 6 nM; at Cannabinoid receptor 1 [2] it was 15 nM; on Cannabinoid receptor 2 [14], 0.7 nM. The same compound gave a half-life in data set [10] of 4.1 h. In data set [11], this compound displayed an AUC of 1500 ng·h/mL.

In the case of `CSC(=S)N1CC2(CCCCC2)CS/C1=N\c1ccc2c(c1)CCCC2`, the inhibition constant Ki on Cannabinoid receptor 2 [1] came out at 24 nM; at Cannabinoid receptor 1 [2] it was 396 nM.

Turning to `CSC(=S)N1CC2(CCCCC2)CS/C1=N\c1ccc(OC(F)(F)F)cc1`, the clearance in data set [3] stood at 7.4 mL/min/kg; in data set [8], 25.9 mL/min/kg. The ED50 was greater than 100 mg/kg in the data set with Mus musculus [5], greater than 20 mg/kg in the data set with Mus musculus [7], greater than 100 mg/kg with Mus musculus [12] and greater than 20 mg/kg in the data set with Mus musculus [13]. In addition, the bioavailability in [6] came to 20%; in data set [4], 24%. In addition, the inhibitory constant (Ki) is 6 nM on Cannabinoid receptor 2 [1], 1210 nM at Cannabinoid receptor 1 [9], 1500 nM at Cannabinoid receptor 1 [2] and 7 nM on Cannabinoid receptor 2 [14]. Moreover, in data set [10], the half-life is 2.4 h. This compound also displayed an exposure (AUC) in data set [11] of 3900 ng·h/mL.

For the compound `CCOc1ccccc1/N=C1\SCC2(CCCCC2)CN1C(=S)SC`, the Ki came to 6.3 nM on Cannabinoid receptor 2 [1] and 358 nM on Cannabinoid receptor 1 [2].

In the case of `CSC(=S)N1CC2(CCCCC2)CS/C1=N\c1ccccc1C(F)(F)F`, the results for the inhibitory constant (Ki) at Cannabinoid receptor 2 [1] and at Cannabinoid receptor 1 [2] were 1.1 nM and 418 nM, respectively.

Take `CSC(=S)N1CC2(CCCCC2)CS/C1=N\c1cccc(C)c1C`: the figures for the Ki at Cannabinoid receptor 2 [1] and at Cannabinoid receptor 1 [2] were 1 nM and 114 nM, respectively.

Regarding `CSC(=S)N1CC2(CCCCC2)CS/C1=N\c1cccc2ccccc12`, the clearance in [3] came to 17.7 mL/min/kg; in data set [8] it was 30.1 mL/min/kg. In addition, the 50% effective dose (ED50) was 1.5 mg/kg in the data set with Mus musculus [5], 0.4 mg/kg in the data set with Mus musculus [7], 1 mg/kg with Mus musculus [12] and 0.4 mg/kg with Mus musculus [13]. The figures for the bioavailability in data set [6] and in data set [4] were 36% and 53%, respectively. In addition, the inhibition constant Ki on Cannabinoid receptor 2 [1] was 6 nM; at Cannabinoid receptor 1 [9], 6.8 nM; at Cannabinoid receptor 1 [2], 30 nM; at Cannabinoid receptor 2 [14], 4 nM. In addition, the half-life in data set [10] is 1.5 h. For the same compound, in [11], the AUC was determined as 6100 ng·h/mL.

As for `CSC(=S)N1CC2(CCCCC2)CS/C1=N\c1cccc2nsnc12`, the clearance in [3] stood at 60.4 mL/min/kg. Further, the Ki was found to be 1.3 nM at Cannabinoid receptor 2 [1] and 44 nM at Cannabinoid receptor 1 [2].

On to `CSC(=S)N1CC2(CCCCC2)CS/C1=N\c1cccc2nonc12`, for which the Ki at Cannabinoid receptor 2 [1] came out at 0.9 nM; on Cannabinoid receptor 1 [2] it was 246 nM.

`CSC(=S)N1CC(C)(C)CS/C1=N\c1ccccc1C(C)C`: the clearance in data set [3] worked out at 63.4 mL/min/kg. For the same compound, the bioavailability in [4] turned out to be 10%. This compound displayed a Ki on Cannabinoid receptor 1 [2] greater than 5000 nM.

On to `CSC(=S)N1CC2(CC2)CS/C1=N\c1ccccc1C(C)C`, for which the clearance in data set [3] was 85.1 mL/min/kg. This compound returned a Ki on Cannabinoid receptor 2 [1] of 65 nM. In addition, in data set [4], the bioavailability amounted to 14%.

`CSC(=S)N1CC2(CCCC2)CS/C1=N\c1ccccc1C(C)C` yielded a clearance in [3] of 54.2 mL/min/kg. Moreover, the Ki at Cannabinoid receptor 2 [1] stood at 1 nM; on Cannabinoid receptor 1 [2], 541 nM. In data set [4], the bioavailability worked out at 8.9%.

As to `CSC(=S)N1CC2(CCCCC2)CS/C1=N\c1cccc2c1CCCN2C`, the inhibition constant (Ki) stood at 1.1 nM on Cannabinoid receptor 2 [1] and 85 nM at Cannabinoid receptor 1 [2].

Turning to `CSC(=S)N1CC2(CCCCC2)CS/C1=N\c1cccc2c1CCC2`, the inhibition constant (Ki) at Cannabinoid receptor 2 [1] amounted to 5 nM; at Cannabinoid receptor 1 [2], 243 nM.

For the compound `CCC1(CC)CS/C(=N\c2ccccc2C(C)C)N(C(=S)SC)C1`, in data set [3], the clearance was 48.3 mL/min/kg. The Ki was 9 nM at Cannabinoid receptor 2 [1] and greater than 5000 nM on Cannabinoid receptor 1 [2]. The bioavailability in [4] is 19%.

With `CSC(=S)N1CC2(CCCCC2)CS/C1=N\c1ccc(C(C)C)cc1`, the Ki was found to be 23 nM at Cannabinoid receptor 2 [1] and 1260 nM at Cannabinoid receptor 1 [2].

Regarding `CCc1ccc(/N=C2\SCC3(CCCCC3)CN2C(=S)SC)cc1`, the Ki on Cannabinoid receptor 2 [1] turned out to be 1.2 nM; at Cannabinoid receptor 1 [2] it was 95 nM.

For the compound `CSC(=S)N1CC2(CCCCC2)CS/C1=N\c1ccc(C#N)cc1`, the inhibition constant Ki at Cannabinoid receptor 2 [1] worked out at 2.3 nM; at Cannabinoid receptor 1 [2], 173 nM.

As to `CSC(=S)N1CC2(CCCCC2)CS/C1=N\c1ccccc1OC(F)(F)F`, the Ki was found to be 12 nM at Cannabinoid receptor 2 [1] and 711 nM at Cannabinoid receptor 1 [2].

Consider `CSC(=S)N1CC2(CCCCC2)CS/C1=N\c1cccc2ncccc12`, for which the clearance in data set [3] was determined as 121 mL/min/kg. For the same compound, the Ki at Cannabinoid receptor 2 [1] came out at 11 nM; on Cannabinoid receptor 1 [2] it was 763 nM. For the same compound, the bioavailability in data set [4] was 42%.

For `CSC(=S)N1CC2(CCCCC2)CS/C1=N\c1ccccc1C(C)C`, the values for the clearance in data set [3] and in data set [8] were 18.6 mL/min/kg and 38.2 mL/min/kg, respectively. For the same compound, the ED50 was found to be 17.5 mg/kg in the data set on Mus musculus [5], 1.2 mg/kg with Mus musculus [7], 17.5 mg/kg in the data set on Mus musculus [12] and 1.1 mg/kg in the data set with Mus musculus [13]. Besides, the bioavailability in data set [6] worked out at 24%; in data set [4] it was 32%. Further, the Ki at Cannabinoid receptor 2 [1] stood at 0.8 nM; on Cannabinoid receptor 1 [9] it was 80 nM; on Cannabinoid receptor 1 [2], 122 nM; at Cannabinoid receptor 2 [14], 1.2 nM. The half-life in data set [10] is 2.5 h. In data set [11], this compound displayed an AUC of 3200 ng·h/mL.

Consider `CCCCCc1cc(O)c2c(c1)OC(C)(C)[C@@H]1CCC(C)=C[C@@H]21` [DRONABINOL], for which the median effective dose (ED50) stood at 0.4 mg/kg with Mus musculus [7] and 0.3 mg/kg in the data set on Mus musculus [13].

For the compound `CN1CC[C@]23c4c5ccc(O)c4O[C@H]2[C@@H](O)C=C[C@H]3[C@H]1C5` [MORPHINE], the ED50 with Mus musculus [5] was 27.3 mg/kg; in the data set with Mus musculus [7] it was 1.1 mg/kg; in the data set on Mus musculus [12], 9.8 mg/kg; with Mus musculus [13], 1.1 mg/kg.
